Test results: US20250275938A1, “COMPOSITIONS AND METHODS FOR TREATMENT OF CANCER” (SCIROSBIO (FZC), priority 2022, published 2025)

System: VEGF
Assay: Immunohistochemistry of tumor sections, VEGF
Type: in vivo, rat
Details: i.p. 7 days; tumor-control 73.58%
Protocol: Immunohistochemistry. For immunohistochemistry (IHC) analysis, 4 μm thick tissue sections were deparaffinized in xylene and hydrated by immersing in a series of graded ethanol concentration (100%, 95%, 75% and 50%). Endogenous peroxidase activity was blocked by incubating sections in 3% H2O2 solution prepared in methanol at room temperature for 10 minutes and were washed with PBS twice for 5 minutes each. Antigen retrieval was performed by immersing the slides in 300 ml of retrieval buffer (10 mM citrate buffer, pH 6.0) for one hour at 100° C. and were rinsed twice in PBS. Sections were then incubated with approximately 100 μl diluted primary antibodies of Ki67 (1:100 dilution, Elabscience, Wuhan, China) and Vascular Endothelial Growth Factor (VEGF) (1:100 dilution, Elabscience, Wuhan, China) for 30 minutes at room temperature. The slides were then washed twice with PBS and were then incubated with approximately 100 μl of diluted secondary antibody (Cat No. E-IR-R213, Elabscience, Wuhan, China) at room temperature for 30 minutes. Slides were then washed in PBS for 5 minutes, followed by incubation with approximately 100 μl diluted Horse Radish Peroxidase (HRP) conjugate for 30 minutes. […] The staining intensities were quantified using IHC Profiler, a plugin in ImageJ software, to determine the H-score (Histo score).

O=C(O[C@@H]1Cc2c(O)cc(O)cc2O[C@@H]1c1cc(O)c(O)c(O)c1)c1cc(O)c(O)c(O)c1 [EGCG, [(2R,3R)-5,7-dihydroxy-2-(3,4,5-trihydroxyphenyl)-3,4-dihydro-2H-chromen-3-yl] 3,4,5-trihydroxybenzoate]
cytoplasmic positivity for VEGF (H-score): 44.45%
